Assay results taken from US10618916B2, “Heterocyclic compounds as immunomodulators” (Incyte Corporation, priority 2018, dated 2020).
Where two headings read alike, the source gives them in different places.

Assays:
[1] = system: PD-L1 aAPC/CHO-K1 cells and Jurkat-PD-1-NFAT effector cells; assay: Nuclear factor of activated T-cells (NFAT) assay; type: cell-based
Protocol: Example C. Nuclear Factor of Activated T-Cells (NFAT) Assay
PD-L1 aAPC/CHO-K1 cells (Promega) were maintained in F-12 medium with addition of 10% FBS, 200 μg/ml Hygromycin B, 250 μg/ml Geneticin (G418). Jurkat-PD-1-NFAT effector cells (Promega) were cultured in RPMI 1640 medium supplemented with 10% FBS, 100 μg/ml Hygromycin B, 500 μg/ml G418. The culture media of PD-L1 aAPC/CHO-K1 cells were first replaced with assay medium (RPMI1640 medium with 1% FBS). The PD-L1 aAPC/CHO-K1 cells were then added in a white 384-well white clear bottom assay plate (CELLCOAT® Tissue Culture Plates, Greiner Bio-One) at 8000 per well in 10 μL assay medium. Test compounds were prepared by serial dilution in DMSO and 0.8 μL test compounds in DMSO were first transferred to the 384 REMP plate well (Thermofisher) by PlateMate Plus (Thermofisher) followed with addition of 50 μL plating medium. 5 μL compounds in the assay medium were transferred to the cells with 0.4% DMSO in the final assay at 2 μM. After removing the culture media, 10,000 Jurkat-PD-1-NFAT effector cells in 5 μL assay medium was dispensed into each well. The assay plate was incubated at 37° C., 5% CO2 for 24 hours. After the assay plate was equilibrated to room temp for 15 minutes, 20 µL/well of Bio-Glo™ reagent (Promega) were added. After 8 minutes incubation at room temperature, luminescence was read at with Pherastar microplate reader (BMG Labtech). The fold of induction (FOI) was calculated based on the ratio of luminescence normalized to the DMSO wells within each assay plate. The maximum percentage of induction was reported based on the ratio between the highest FOI of each compound and the maximum FOI of control compound within each assay plate. Wells with DMSO were served as the negative controls and wells containing control compound with the highest FOI were used as positive controls. EC50 determination was performed by fitting the curve of percent control activity versus the log of the compound concentration using the GraphPad Prism 6.0 software.

[2] = molecular target: PD-1/PD-L1 protein/protein interaction (recombinant human PD-L1 and human PD-1) (Homo sapiens (Human), UniProt Q9NZQ7); assay: Homogeneous Time-Resolved Fluorescence (HTRF) PD-1/PD-L1 binding assay
Protocol: Example A. Homogeneous Time-Resolved Fluorescence (HTRF) PD-1/PD-L1 Binding Assay
The assays were conducted in a standard black 384-well polystyrene plate with a final volume of 20 μL. Inhibitors were first serially diluted in DMSO and then added to the plate wells before the addition of other reaction components. The final concentration of DMSO in the assay was 1%. The assays were carried out at 25° C. in the PBS buffer (pH 7.4) with 0.05% Tween-20 and 0.1% BSA. Recombinant human PD-L1 protein (19-238) with a His-tag at the C-terminus was purchased from AcroBiosystems (PD1-H5229). Recombinant human PD-1 protein (25-167) with Fc tag at the C-terminus was also purchased from AcroBiosystems (PD1-H5257). PD-L1 and PD-1 proteins were diluted in the assay buffer and 10 μL was added to the plate well. Plates were centrifuged and proteins were preincubated with inhibitors for 40 minutes. The incubation was followed by the addition of 10 μL of HTRF detection buffer supplemented with Europium cryptate-labeled anti-human IgG (PerkinElmer-AD0212) specific for Fc and anti-His antibody conjugated to SureLight®-Allophycocyanin (APC, PerkinElmer-AD0059H). After centrifugation, the plate was incubated at 25° C. for 60 min. before reading on a PHERAstar FS plate reader (665 nm/620 nm ratio). Final concentrations in the assay were—3 nM PD1, 10 nM PD-L1, 1 nM europium anti-human IgG and 20 nM anti-His-Allophycocyanin. IC50 determination was performed by fitting the curve of percent control activity versus the log of the inhibitor concentration using the GraphPad Prism 5.0 software.

[3] = system: U2OS/PD-L1 cells and Jurkat-PD-1-SHP cells; assay: Src homology region 2 domain-containing phosphatase (SHP) assay; type: cell-based
Protocol: Example B. Src Homology Region 2 Domain-Containing Phosphatase (SHP) Assay
U2OS/PD-L1 cells (DiscoveRx Corporation) were maintained in McCoy's 5A medium with addition of 10% FBS, 0.25 μg/ml Puromycin. After removing the culture media, the cell medium was replaced with assay medium (RPMI1640 medium with 1% FBS). The U2OS/PD-L1 cells were then added in 384-well black clear bottom assay plate (CELLCOAT® Tissue Culture Plates, Greiner Bio-One) at 5000 cells per well in 20 μL assay medium. Test compounds were prepared by serial dilution in DMSO and 125 nL compound were first transferred to the 384 REMP plate well (Thermofisher) by ECHO liquid handler (Labcyte) followed with addition of 27.5 μL assay medium. 5 μL/well compounds in the assay medium were transferred to the cell plate with 0.05% DMSO in the final assay at […]. Jurkat-PD-1-SHP cells (DiscoveRx Corporation) were cultured in RPMI1640 medium supplemented with 10% FBS, 250 μg/ml Hygromycin B, 500 μg/ml G418. After the replacement of culture media with assay medium, 5,000 Jurkat-PD-1-SHP cells in 20 μL were dispensed into each well. The assay plate was incubated at 37° C., 5% CO2 for 2 hours before 2.5 μL PathHunter reagent 1 (DiscoveRx Corporation) were added to each well. The assay plate was shaken for 1 min at 350 rpm in the dark followed with addition of 10 μL PathHunter reagent 2 (DiscoveRx Corporation). Chemiluminescent signal was recorded with TopCount reader (Perkin Elmer) after incubation at room temperature for 1 hour. Wells with DMSO were served as the positive controls and wells containing no cells were used as negative controls. IC50 determination was performed by fitting the curve of percentage of control activity versus the log of the compound concentration using the GraphPad Prism 6.0 software.

Chain of PD-1/PD-L1 protein/protein interaction (recombinant human PD-L1 and human PD-1) (Q9NZQ7 19-238): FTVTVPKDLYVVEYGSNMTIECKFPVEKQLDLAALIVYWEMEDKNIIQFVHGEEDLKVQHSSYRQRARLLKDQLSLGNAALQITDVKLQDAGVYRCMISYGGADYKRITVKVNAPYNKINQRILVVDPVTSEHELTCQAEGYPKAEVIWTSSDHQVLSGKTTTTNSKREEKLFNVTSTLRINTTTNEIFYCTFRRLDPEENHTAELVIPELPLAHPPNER

Question: With `Cn1c(C(=O)Nc2cccc(-c3cccc(NC(=O)c4nc5c(n4C)CCN(CCO)C5)c3C#N)c2Cl)nc2c1CCN(CCC13CCC(C(=O)O)(CC1)C3)C2` [Example 50, 4-(2-(2-((2-chloro-2′-cyano-3′-(5-(2-hydroxyethyl)-1-methyl-4,5,6,7-tetrahydro-1H-imidazo[4,5-c]pyridine-2-carboxamido)-[1,1′-biphenyl]-3-yl)carbamoyl)-1-methyl-1,4,6,7-tetrahydro-5H-imidazo[4,5-c]pyridin-5-yl)ethyl)bicyclo[2.2.1]heptane-1-carboxylic acid] as the molecule, how does the EC50 ([1]; Cricetulus griseus, CHO-K1) read?
Answer: Its EC50 is 0.01 to 0.1 µM.

Question: And the IC50 [2]?
Answer: The IC50 was no more than 0.005 µM.

Question: What does the source list for `Cn1c(C(=O)Nc2cccc(-c3cccc(NC(=O)c4nc5c(n4C)CCN(Cc4cc(C(=O)O)n[nH]4)C5)c3Cl)c2Cl)nc2c1CCN(CCC13CCC(C(=O)O)(CC1)C3)C2` [Example 26, 5-((2-((3′-(5-(2-(4-carboxybicyclo[2.2.1]heptan-1-yl)ethyl)-1-methyl-4,5,6,7-tetrahydro-1H-imidazo[4,5-c]pyridine-2-carboxamido)-2,2′-dichloro-[1,1′-biphenyl]-3-yl)carbamoyl)-1-methyl-1,4,6,7-tetrahydro-5H-imidazo[4,5-c]pyridin-5-yl)methyl)-1H-pyrazole-3-carboxylic acid]?
Answer: EC50 ([1]; Cricetulus griseus, CHO-K1): 0.01 to 0.1 µM; IC50 [2]: ≤ 0.005 µM; IC50 ([3]; Homo sapiens, U2OS): ≤ 0.01 µM

Question: With `Cc1c(NC(=O)c2nc3c(n2C)CCNC3)cccc1-c1cccc(NC(=O)c2nc3c(n2C)CCN(CCC24CCC(C(=O)O)(CC2)C4)C3)c1C` [Example 53, 4-(2-(2-((2,2′-dimethyl-3′-(1-methyl-4,5,6,7-tetrahydro-1H-imidazo[4,5-c]pyridine-2-carboxamido)-[1,1′-biphenyl]-3-yl)carbamoyl)-1-methyl-1,4,6,7-tetrahydro-5H-imidazo[4,5-c]pyridin-5-yl)ethyl)bicyclo[2.2.1]heptane-1-carboxylic Acid] as the molecule, how does the EC50 ([1]; Cricetulus griseus, CHO-K1) read?
Answer: The EC50 was 0.01 to 0.1 µM.

Question: And the IC50 [2]?
Answer: Its IC50 is no more than 0.005 µM.

Question: What about the IC50 ([3]; Homo sapiens, U2OS) of the same molecule?
Answer: The IC50 was no more than 0.01 µM.

Question: With `CC(C)N1CCc2c(nc(C(=O)Nc3cccc(-c4cccc(NC(=O)c5nc6c(n5C)CCN(CCC57CCC(C(=O)O)(CC5)C7)C6)c4Cl)c3Cl)n2C)C1` [Example 5, 4-(2-(2-((2,2′-dichloro-3′-(5-isopropyl-1-methyl-4,5,6,7-tetrahydro-1H-imidazo[4,5-c]pyridine-2-carboxamido)-[1,1′-biphenyl]-3-yl)carbamoyl)-1-methyl-1,4,6,7-tetrahydro-5H-imidazo[4,5-c]pyridin-5-yl)ethyl)bicyclo[2.2.1]heptane-1-carboxylic acid] as the molecule, how does the EC50 ([1]; Cricetulus griseus, CHO-K1) read?
Answer: Its EC50 is no more than 0.01 µM.

Question: And the IC50 [2]?
Answer: The IC50 was no more than 0.005 µM.

Question: What about the IC50 ([3]; Homo sapiens, U2OS) of the same molecule?
Answer: Its IC50 is no more than 0.01 µM.

Question: Which results are given for `Cc1c(NC(=O)c2nc3c(n2C)CCN(CCC24CCC(C(=O)O)(CC2)C4)C3)cccc1-c1cccc(NC(=O)c2nc3c(n2C)CCN(C)C3)c1Cl` [Example 39, 4-(2-(2-((2′-chloro-3′-(1,5-dimethyl-4,5,6,7-tetrahydro-1H-imidazo[4,5-c]pyridine-2-carboxamido)-2-methyl-[1,1′-biphenyl]-3-yl)carbamoyl)-1-methyl-1,4,6,7-tetrahydro-5H-imidazo[4,5-c]pyridin-5-yl)ethyl)bicyclo[2.2.1]heptane-1-carboxylic acid]?
Answer: EC50 ([1]; Cricetulus griseus, CHO-K1): 0.01 to 0.1 µM; IC50 [2]: ≤ 0.005 µM; IC50 ([3]; Homo sapiens, U2OS): ≤ 0.01 µM

Question: How did the EC50 ([1]; Cricetulus griseus, CHO-K1) turn out when `Cc1c(NC(=O)c2nc3c(n2C)CCN(CCC24CCC(C(=O)O)(CC2)C4)C3)cccc1-c1cccc(NC(=O)c2nc3c(n2C)CCN(CC24CCC(C(=O)O)(CC2)C4)C3)c1C` [Example 55, 4-((2-((3′-(5-(2-(4-carboxybicyclo[2.2.1]heptan-1-yl)ethyl)-1-methyl-4,5,6,7-tetrahydro-1H-imidazo[4,5-c]pyridine-2-carboxamido)-2,2′-dimethyl-[1,1′-biphenyl]-3-yl)carbamoyl)-1-methyl-1,4,6,7-tetrahydro-5H-imidazo[4,5-c]pyridin-5-yl)methyl)bicyclo[2.2.1]heptane-1-carboxylic acid] was run?
Answer: The EC50 was 0.01 to 0.1 µM.

Question: And the IC50 [2]?
Answer: The IC50 was no more than 0.005 µM.

Question: And the IC50 ([3]; Homo sapiens, U2OS)?
Answer: Its IC50 is no more than 0.01 µM.

Question: For `Cc1c(NC(=O)c2nc3c(n2C)CCN(C2CCC(O)CC2)C3)cccc1-c1cccc(NC(=O)c2nc3c(n2C)CCN(CCC24CCC(C(=O)O)(CC2)C4)C3)c1Cl` (single isomer, unassigned) [61 (compound 2), 4-(2-(2-((2-chloro-3′-(5-(4-hydroxycyclohexyl)-1-methyl-4,5,6,7-tetrahydro-1H-imidazo[4,5-c]pyridine-2-carboxamido)-2′-methyl-[1,1′-biphenyl]-3-yl)carbamoyl)-1-methyl-1,4,6,7-tetrahydro-5H-imidazo[4,5-c]pyridin-5-yl)ethyl)bicyclo[2.2.1]heptane-1-carboxylic acid], which EC50 [1] is on record?
Answer: The EC50 was 0.01 to 0.1 µM.

Question: And the IC50 [2]?
Answer: The IC50 was no more than 0.005 µM.

Question: And the IC50 [3]?
Answer: Its IC50 is no more than 0.01 µM.

Question: `C[C@@H](O)CN1CCc2c(nc(C(=O)Nc3cccc(-c4cccc(NC(=O)c5nc6c(n5C)CCN(CCC57CCC(C(=O)O)(CC5)C7)C6)c4Cl)c3C#N)n2C)C1` [Example 49, (R)-4-(2-(2-((2-chloro-2′-cyano-3′-(5-(2-hydroxypropyl)-1-methyl-4,5,6,7-tetrahydro-1H-imidazo[4,5-c]pyridine-2-carboxamido)-[1,1′-biphenyl]-3-yl)carbamoyl)-1-methyl-1,4,6,7-tetrahydro-5H-imidazo[4,5-c]pyridin-5-yl)ethyl)bicyclo[2.2.1]heptane-1-carboxylic Acid] was tested. Which EC50 ([1]; Cricetulus griseus, CHO-K1) did it give?
Answer: Its EC50 is 0.01 to 0.1 µM.

Question: And the IC50 [2]?
Answer: The IC50 was no more than 0.005 µM.

Question: What does the source list for `Cn1c(C(=O)Nc2cccc(-c3cccc(NC(=O)c4nc5c(n4C)CCN(C4CCOCC4)C5)c3C#N)c2Cl)nc2c1CCN(CCC13CCC(C(=O)O)(CC1)C3)C2` [Example 47, 4-(2-(2-((2-chloro-2′-cyano-3′-(1-methyl-5-(tetrahydro-2H-pyran-4-yl)-4,5,6,7-tetrahydro-1H-imidazo[4,5-c]pyridine-2-carboxamido)-[1,1′-biphenyl]-3-yl)carbamoyl)-1-methyl-1,4,6,7-tetrahydro-5H-imidazo[4,5-c]pyridin-5-yl)ethyl)bicyclo[2.2.1]heptane-1-carboxylic acid]?
Answer: EC50 ([1]; Cricetulus griseus, CHO-K1): 0.01 to 0.1 µM; IC50 [2]: ≤ 0.005 µM
